According to ChEMBL document CHEMBL3507680, “University of Dundee, Gates Library screen for HepG2 cell viability”:

Experiment: Human HepG2 cell viability assay in 384 well format
Format: toxicity, cell-based
Parameters: dose 125 nL, time 70.5 hour; cytotoxicity at 70.5 h: concentration not given beside the values
Settings: HepG2 cells, read-out: Inhibition

Compound | cytotoxicity at 70.5 h [%]
FC(F)(F)c1csc(N2CCN(Cc3ccccn3)CC2)n1 | -6.63
Cc1nc(CNC(C)c2cccc(S(=O)(=O)N(C)C)c2)no1 (centres undefined) | 16.5
Cc1nn(C)c(C)c1NC(=O)CNC(c1ccccc1)C1CCCC1 (centres undefined) | -9.64
CC(C)CCCNC(=O)Nc1ccc(C(N)=O)c(Cl)c1 | -4.82
CN1CCN(C(=O)NCCNc2ncccn2)Cc2ccccc21 | -14
O=C(COc1cccc2c1CCC2=O)NCCc1cccs1 | 12.1
Cn1nnnc1SCCC(=O)NCC1Cc2ccccc2O1 (centres undefined) | -23.7
CC(C)[C@H]1CN(CCS(C)(=O)=O)C[C@@H]1NC(=O)c1ccc(=O)[nH]c1 | -3.99
Cc1nc(C(=O)N(C)CC(=O)N(C)C)nn1-c1ccccc1C(C)C | 33.6
CCc1nccn1C1CCCN(C(=O)c2cnc3ccccc3n2)C1 (centres undefined) | -2.77
O=C1C(Sc2nnnn2C2CC2)CCN1c1ccccc1F (centres undefined) | -3.39
COc1ccccc1CNC(=O)C[S+]([O-])Cc1cc(C)on1 (centres undefined) | -3.68
OCC(CO)N1CCCC(Cc2ccnc(Nc3ccccn3)c2)C1 (centres undefined) | -14.9
NC(=O)CCC(=O)N1CCc2[nH]nc(-c3ccc4c(c3)OCO4)c2C1 | -5.52
Cc1cccc(C)c1-c1cc(NCCO)nc2[nH]ccc12 | -11.1
Cc1cc(C)n(CC2CCCN2C(=O)c2cncnc2C)n1 (centres undefined) | 1.29
COc1cc(C(=O)N(C2CC2)C2CC(=O)NC2=O)ccc1C (centres undefined) | -0.747
Fc1cccc(N2C[C@H]3CCN(c4cccnc4)C[C@H]3C2)c1 | -5.68
O=C(CCc1ccccc1)N1CCCCC1Cn1cccn1 (centres undefined) | 11.8
Cc1cccc(-c2noc([C@@H]3C[C@@H](O)CN3Cc3ccc(CO)o3)n2)c1 | 0.167
Cc1nc(NC2CCCC2)cc(C2CCN2C(=O)c2cnn(C)c2)n1 (centres undefined) | -3.93
NC(=O)c1noc(Cn2ccc3ccccc3c2=O)n1 | -4.6
CC(C(N)=O)N1CCc2onc(-c3cccc(F)c3)c2C1 (centres undefined) | -12.5

Compound | cytotoxicity at 70.5 h [%]
Cc1cc(C(=O)Nc2cnn(CC(=O)NC3CCCC3)c2)c(C)s1 | -6.94
CCOc1ccc(CN2CCCC(c3cc4ncccc4[nH]3)C2)cc1 (centres undefined) | 6.95
Cc1cc(C)n(C2CN(CCC(N)=O)C2)n1 | 0.833
CN(C)c1nc2c(c(=O)[nH]1)Cc1ccccc1OC2 | 31.5
CCN1C[C@H]2C[C@H](C(=O)Nc3ccccc3)[C@@H](C1)O2 | 16.4
CCCN1CCN(C(=O)c2ccc3ccccc3n2)[C@H]2CS(=O)(=O)C[C@H]21 | 13.2
Cc1nc(CN2CCCC(NCc3ccc(Cl)s3)C2)no1 (centres undefined) | -13
Cc1ccc(N2CCCC(N(C)Cc3noc(C4CC4)n3)C2)nn1 (centres undefined) | -9.69
COc1cnc(N2C[C@H](CO)C[C@H](CN3CCOCC3)C2)nc1 | -2.01
CCOCc1ccccc1NC(=O)NCC(C)(O)c1cc(C)oc1C (centres undefined) | -1.67
NC(=O)CN(Cc1ncc(-c2ccc(Cl)cc2)o1)C1CCCC1 | -7.75
CC1(C)CN(Cc2cc(C3CCCCC3)no2)CC[C@]1(C)O | -12.5
Cc1ccc(CNCC2CCCn3ccnc32)s1 (centres undefined) | -4.1
N#Cc1cccnc1N1CCC(C2CCCCCN2C(=O)C2CC2)CC1 (centres undefined) | 5.51
CC(C)OCCN1CCN(C(=O)c2cc(-n3cccn3)ccn2)CC1 | -4.55
O=C(c1cccc(F)c1)N1CC[C@@H]2CN(c3ncccn3)CCO[C@@H]2C1 | -15.1
Cc1ccc(C)c(S(=O)(=O)NCCC(=O)NCc2ccoc2)c1 | -11.7
COc1ccc(C[C@H]2CNCC[C@H]2OC)cc1 | -6.44
O=C(CCCNC(=O)C1CCCO1)Nc1ccc(Cl)cc1 (centres undefined) | 17.1
CCOCc1cnc2n1CCN(C(=O)Cc1cccs1)C2C (centres undefined) | -7.5
Cc1ccc(CNC(=O)CN(C)CC2CCN(CCO)CC2)s1 | 2.24
Cc1nccc(N2CCC(=O)N(CC3CC3)C(C(C)C)C2)n1 (centres undefined) | -1.5
Cc1ccc(S(=O)(=O)CCC(=O)N(C)Cc2cnn(C)c2)cc1 | -73.6

Compound | cytotoxicity at 70.5 h [%]
CCN(CC1CCCN(CCc2cccc(OC)c2)C1)C(=O)CSC (centres undefined) | -8.89
O=C(CSC1CCc2ccccc2NC1=O)Nc1ccc(CCO)cc1 (centres undefined) | -1.18
Cc1nc(CN2CCCC2C(=O)OCc2ccccc2)oc1C (centres undefined) | -10.3
CC(C)Cc1noc(CN(C)c2cc(N(C)C)ncn2)n1 | -7.9
CC(C)[C@@H](N)C(=O)NCc1cccnc1N1CCc2ccccc2C1 | -4.97
COCCOc1ccc(-c2noc([C@@H]3CCCN3C3CCC3)n2)cn1 | -3.43
COCCn1ccc(NC(=O)Nc2ccc(C)cc2)n1 | -5.81
Cc1cc(C(=O)N2C[C@@H](CN3CCOCC3)C[C@H](CO)C2)nc(C)n1 | -5.29
CN(Cc1ccccc1)C(=O)CS(=O)(=O)Cc1ccc(Cl)c(Cl)c1 | -4.65
Cc1cc(C)c2c(OCC(=O)NCC(O)C(F)(F)F)nn(C)c2n1 (centres undefined) | -15.2
CC(C)Cc1ncc2c(n1)CN(c1nc3ccccc3cc1CO)C2 | -14.3
OC(CN1CCN(CC2CC2)CC1)c1ccc(Br)cc1 (centres undefined) | -2.6
O=C(Cn1cc(-c2ccccc2)ncc1=O)Nc1nccs1 | 7.52
CCC(CC)C(=O)N1CCN(C)c2ncccc2C1 | -2.64
Cc1cnn(CCCNC(=O)C2CCCCN2Cc2cccnc2)c1 (centres undefined) | 0.0952
N[C@@H]1c2ccccc2C2(CCN(C(=O)c3ccc(Cl)cn3)CC2)[C@H]1O | 18.5
CC(=O)N1CCC(NC(=O)c2cc(Cl)ccc2O)CC1 | -4.41
CCN(CC)C1CCN(C(=O)NCc2cccc(-n3ccnc3)c2)C1 (centres undefined) | -6.04
NS(=O)(=O)c1ccc(NCc2ccccc2)cc1C(F)(F)F | 4.82
Cc1cc(C)n(CC2CCCN2C(=O)c2cccnc2N(C)C)n1 (centres undefined) | -8.62
Cc1nc(C)n(CC2CCCN(Cc3nc(C4CC4)no3)C2)n1 (centres undefined) | -1.73
Cc1nc(-n2nc(-c3cccs3)cc2N)[nH]c(=O)c1C | -4.91
CC(C)NC(=O)C1CCN(c2snc3ccccc23)CC1 | -9.65

Compound | cytotoxicity at 70.5 h [%]
CN(Cc1cc(Cl)c2c(c1)OCO2)Cc1cscn1 | 3.03
Cc1[nH]ncc1C(=O)N1CCCN(Cc2nccn2C(C)C)CC1 | -1.07
O=C(NCC1CCOC1)c1cc(-c2ccc(Cl)cc2)n[nH]1 (centres undefined) | 20.6
CCN(Cc1ccncc1)Cc1cn(-c2ccccc2)nn1 | -10.2
O=C(C[C@@H]1COC[C@H]2CN(CC3CCOCC3)C[C@@H]12)N1CCCCO1 | -8.58
Cc1cc(CNC(=O)Nc2ccc(C(=O)NC3CC3)cc2)no1 | -14.3
CN(C)c1ncc(I)c(C2CCCN2C)n1 (centres undefined) | 1.48
CSC1(CNC(=O)CCc2ccc(Cl)s2)CCOCC1 | -5.64
CN1CCCN(c2nc(C3CC3)ns2)CC1 | -3.92
Cc1cc(-c2cnc(NC3CCCC3)nc2-c2ccc(C)o2)on1 | -5.77
CC(C(=O)N1CCCC1)N1CCC(c2nccn2CC2CCC2)CC1 (centres undefined) | -4.27
CC(C)n1nc2c(cc1=O)CN(Cc1ccc(-n3cccn3)cc1)CC2 | 24.1
CC1=Nc2c(c(O)nn2C(C)C)C(c2cn(C)nc2C)S1 (centres undefined) | 21
Cc1ncsc1CN1C[C@H](OCC(C)C)[C@H]2OCCC[C@H]21 | -0.162
Cc1occc1C(=O)N1CCCC1c1ccc(C(=O)N2CCOCC2)s1 (centres undefined) | 9.73
O=C(CCc1nc(-c2ccsc2)no1)NCC1CCN(C2CC2)C1 (centres undefined) | 7.83
COCCC1(C(=O)NCCc2nncn2C2CC2)CCC1 | -13.5
CC(=O)Nc1nc(CN2CCCC2Cn2cc(C)cn2)cs1 (centres undefined) | 30.3
O=C(COC[C@@]12CCC[C@@H]1CN(C1CCCC1)C2)N1CCCC1 | -1.08
CN(C1CCN(c2ccccn2)CC1)S(=O)(=O)c1cccc(F)c1 | 2.86
Cn1cc(CN2CCC3(CC(=O)N(c4ccc5c(c4)OCO5)C3)C2)cn1 (centres undefined) | -9.01
Cc1ccnc(N2CCCC(c3nccn3C(C)C)C2)n1 (centres undefined) | 1.49
CN(Cc1cccc(-n2cccn2)c1)c1cc(N2CCCC2)nc(N)n1 | -16.8

Compound | cytotoxicity at 70.5 h [%]
Cc1cc(NCCO)nc(N2CCC(Cc3ccccc3)CC2)c1C#N | 0.669
N#CC1(NC(=O)COC(=O)Cc2cc(Cl)c3c(c2)OCCO3)CCCC1 | 16.4
CCn1nc(C)c(C(=O)Nc2ccc3c(c2)C(C)(C)C(=O)N3C)c1C | -0.0352
Cc1cccc(NS(=O)(=O)c2cc(C(=O)O)oc2C)c1Cl | 1.03
c1ccc(CN2CCC(NCCSc3cnn[nH]3)C2)cc1 (centres undefined) | -3.66
CN(C)c1ncccc1CNS(=O)(=O)c1ccccc1F | -27.7
Cc1nnc(NC(=O)CN2CCCC2c2c(C)nn(C)c2C)s1 (centres undefined) | 7.87
CSCc1cccc(NC(=O)N2CCC(N3CC=CC3)C2)c1 (centres undefined) | 35
CC(C)(C)n1nnnc1CN(CCc1ccccc1)Cc1ccccc1 | 1.44
CC(C)(C)CNCC1(O)CCCN(Cc2ccccc2F)C1=O (centres undefined) | 0.716
COCCN1CC2(CCC1=O)CCN(Cc1nnc(C)o1)CC2 | -5.52
CC1CCc2nc(NS(=O)(=O)c3cnn(C)c3)sc2C1 (centres undefined) | 0.918
CCc1nnc(Nc2cccc(C3CCN(S(=O)(=O)N(C)C)CC3)n2)s1 | -6.79
CC(=O)N1C[C@H]2CN(CC3CC3)C(=O)[C@H]2C1 | -0.948
CC(C)CC(=O)N(C)CC(=O)Nc1ccc(Br)cn1 | 0.489
Cc1cc(C(=O)NC2CCCCNC2=O)c(=O)[nH]c1C (centres undefined) | -6.38
CCN1CCc2c(cccc2NC(=O)CN(C)C2CCSC2)C1 (centres undefined) | -3.51
Cc1ccc(C(=O)NCCS(=O)(=O)Cc2ccccc2)c(C)c1 | 1.96
Cn1cnnc1-c1cncc(NCc2ccccc2Br)c1 | 13.6
CCN(CC)c1ccc(NS(=O)(=O)c2cncc(F)c2)cn1 | -0.536
CC(c1ncc(C(C)(C)C)o1)N1CCN(c2ccncc2)CC1 (centres undefined) | -2.28
CNc1ncc(CN2CCC(CCc3ccccc3)CC2)cn1 | -1.31
